Laboratory results as given in the supplement of paper PMC10307832.

Legend:
Assay in all cases: relative viability (nuclei count vs DMSO), 5 days (fraction); higher = more cells survive
[1] = compound: C[C@]12O[C@H](C[C@]1(O)CO)n1c3ccccc3c3c4c(c5c6ccccc6n2c5c31)CNC4=O [Lestaurtinib] + Nc1nc2[nH]cc(CCc3ccc(C(=O)N[C@@H](CCC(=O)O)C(=O)O)cc3)c2c(=O)[nH]1 [Pemetrexed] (partner 0.2 µM)
Outline: (§1)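 Relative viability is defined as nuclei in treated wells over nuclei in vehicle wells. Duplicate plates were run and medians reported. Lung cancer cell lines in 1536-well plates were dosed by pin tool one day after seeding, with one drug or with a fixed anchor-drug dose plus five library-drug doses (not always all listed) in √10 steps, and nuclei were counted after 5 days.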

TPCA-1 + Linsitinib = compound: C1=CC(=CC=C1C2=CC(=C(S2)NC(=O)N)C(=O)N)F [TPCA-1] + C[C@]1(O)C[C@@H](c2nc(-c3ccc4ccc(-c5ccccc5)nc4c3)c3c(N)nccn32)C1 [Linsitinib] (partner 1 µM)
Outline: as §1

Lestaurtinib + OSI-027 = compound: C[C@]12O[C@H](C[C@]1(O)CO)n1c3ccccc3c3c4c(c5c6ccccc6n2c5c31)CNC4=O [Lestaurtinib] + COc1cccc2cc(-c3nc([C@H]4CC[C@H](C(=O)O)CC4)n4ncnc(N)c34)[nH]c12 [OSI-027] (partner 0.5 µM)
Outline: as §1

[2] = compound: C[C@]12O[C@H](C[C@]1(O)CO)n1c3ccccc3c3c4c(c5c6ccccc6n2c5c31)CNC4=O [Lestaurtinib] + CCNC(=O)c1noc(-c2cc(C(C)C)c(O)cc2O)c1-c1ccc(CN2CCOCC2)cc1 [Luminespib] (partner 0.01 µM)
Outline: as §1

| Cell Line | relative viability ([1]; first compound 0.005 µM) | relative viability ([1]; first compound 0.01581 µM) | relative viability ([1]; first compound 0.05 µM) | relative viability ([1]; first compound 0.1581 µM) | relative viability ([1]; first compound 0.5 µM) | relative viability (TPCA-1 + Linsitinib; first compound 0.04 µM) | relative viability (TPCA-1 + Linsitinib; first compound 0.1265 µM) | relative viability (TPCA-1 + Linsitinib; first compound 0.4 µM) | relative viability (TPCA-1 + Linsitinib; first compound 1.265 µM) | relative viability (TPCA-1 + Linsitinib; first compound 4 µM) | relative viability (Lestaurtinib + OSI-027; first compound 0.005 µM) | relative viability (Lestaurtinib + OSI-027; first compound 0.01581 µM) | relative viability (Lestaurtinib + OSI-027; first compound 0.05 µM) | relative viability (Lestaurtinib + OSI-027; first compound 0.1581 µM) | relative viability (Lestaurtinib + OSI-027; first compound 0.5 µM) | relative viability ([2]; first compound 0.005 µM) | relative viability ([2]; first compound 0.01581 µM) | relative viability ([2]; first compound 0.05 µM) | relative viability ([2]; first compound 0.1581 µM) | relative viability ([2]; first compound 0.5 µM) |
| --- | --- | --- | --- | --- | --- | --- | --- | --- | --- | --- | --- | --- | --- | --- | --- | --- | --- | --- | --- | --- |
| HCC-366 | 0.158 | 0.168 | 0.157 | 0.163 | 0.104 | 0.72 | 0.568 | 0.807 | 0.458 | 0.427 | 1.03 | 1.03 | 0.827 | 0.353 | 0.198 | – | – | – | – | – |
| HCC-827 | 0.234 | 0.234 | 0.26 | 0.28 | 0.196 | 0.934 | 0.889 | 0.935 | 0.932 | 0.806 | 0.781 | 0.727 | 0.459 | 0.626 | 0.659 | 0.332 | 0.505 | 0.344 | 0.289 | 0.33 |
| HOP-62 | 0.269 | 0.322 | 0.309 | 0.339 | 0.22 | 0.96 | 0.676 | 0.921 | 1.12 | 0.973 | 0.936 | 0.958 | 0.498 | 0.643 | 0.415 | 0.9 | 1.07 | 0.855 | 0.913 | 0.274 |
| IA-LM | – | – | – | – | – | 0.75 | 0.411 | 0.47 | 0.259 | 0.378 | – | – | – | – | – | – | – | – | – | – |
| LC-2-ad | 0.258 | 0.277 | 0.252 | 0.258 | 0.186 | 0.92 | 0.71 | 0.833 | 0.807 | 0.331 | 0.892 | 0.783 | 0.506 | 0.483 | 0.304 | 1.1 | 1.21 | 0.799 | 0.617 | 0.372 |
| LCLC-97TM1 | – | 0.183 | 0.149 | 0.146 | 0.132 | 0.206 | 0.188 | 0.166 | 0.15 | 0.159 | 0.547 | 0.42 | 0.125 | 0.215 | 0.182 | 0.71 | 0.678 | 0.363 | 0.62 | 0.233 |
| LCLC-103H | 0.418 | 0.484 | 0.469 | 0.472 | 0.412 | 1.24 | 0.99 | 1.08 | 1.12 | 1.07 | 0.442 | 0.49 | 0.349 | 0.385 | 0.286 | 1.04 | 1.08 | 0.767 | 0.501 | 0.34 |
| LK-2 | 0.302 | 0.444 | 0.255 | 0.302 | 0.139 | 0.349 | 0.332 | 0.507 | 0.52 | 0.196 | 0.158 | 0.224 | 0.176 | 0.185 | 0.173 | 0.202 | 0.19 | 0.17 | 0.208 | 0.203 |
| LOU-NH91 | 0.413 | 0.509 | 0.448 | 0.583 | 0.338 | 1.02 | 0.841 | 1 | 0.993 | 0.859 | 0.728 | 0.711 | 0.637 | 0.574 | 0.424 | 0.341 | 0.262 | 0.254 | 0.301 | 0.224 |
| LU99A | 0.152 | 0.153 | 0.217 | 0.14 | 0.128 | 0.486 | 0.45 | 0.513 | 0.341 | 0.306 | 0.288 | 0.263 | 0.262 | 0.249 | 0.203 | 0.235 | 0.245 | 0.221 | 0.249 | 0.185 |
| LXF-289 | 0.872 | 0.931 | 0.631 | 0.771 | 0.21 | 0.94 | 0.969 | 0.932 | 0.962 | 0.793 | 0.805 | 0.677 | 0.491 | 0.536 | 0.391 | 0.833 | 0.746 | 0.421 | 0.33 | 0.293 |
| NCI-H522 | 1.01 | 1.08 | 1.01 | 0.784 | 0.502 | – | – | – | – | – | 0.816 | 0.791 | 0.679 | 0.709 | 0.572 | 1.3 | 1.01 | 1.08 | 1.03 | 0.699 |
| NCI-H727 | – | – | – | – | – | 0.203 | 0.318 | 0.342 | 0.223 | 0.244 | 0.614 | 0.675 | 0.525 | 0.698 | 0.498 | 0.478 | 0.401 | 0.427 | 0.284 | 0.387 |
| NCI-H1299 | – | – | – | – | – | 1.13 | 0.904 | 0.942 | 0.777 | 1.01 | – | – | – | – | – | – | – | – | – | – |
| NCI-H1623 | – | – | – | – | – | – | – | – | – | – | 0.4 | 0.412 | 0.428 | 0.399 | 0.398 | 0.6 | 0.617 | 0.406 | 0.352 | 0.444 |
| NCI-H1648 | – | 0.806 | – | 1 | 0.606 | – | – | – | – | – | 0.233 | 0.271 | 0.285 | 0.246 | 0.261 | – | – | – | – | – |
| NCI-H1650 | 0.472 | 0.367 | 0.383 | 0.319 | 0.322 | – | – | – | – | – | 0.642 | 0.829 | 0.594 | 0.652 | 0.357 | 0.183 | 0.195 | 0.188 | 0.164 | 0.18 |
| NCI-H1703 | – | – | – | – | – | 1.01 | 0.627 | 0.947 | 0.546 | 0.308 | – | – | – | – | – | – | – | – | – | – |
| NCI-H2170 | 0.258 | 0.259 | 0.259 | 0.261 | 0.175 | – | – | – | – | – | 0.726 | 0.523 | 0.45 | 0.561 | 0.471 | 0.501 | 0.519 | 0.593 | 0.383 | 0.266 |
| NCI-H2342 | 0.74 | 0.773 | 0.796 | 0.858 | 0.6 | – | – | – | – | – | 0.571 | 0.672 | 0.547 | 0.648 | 0.549 | 0.779 | 0.624 | 0.651 | 0.738 | 0.7 |
| SW 900 | 0.517 | 0.538 | 0.487 | 0.532 | 0.441 | – | – | – | – | – | 0.561 | 0.702 | 0.623 | 0.522 | 0.527 | 0.172 | 0.146 | 0.151 | 0.159 | 0.178 |
